From the supplement of paper PMC10307832

Tests used:
Test in all cases: relative viability (nuclei count vs DMSO), 5 days (fraction); higher = more cells survive
[1] = compound: CS(=O)(=O)c1ccc(-c2cnc(N)c(C(=O)Nc3ccccc3)n2)cc1 [VE-821] + Nc1ncn([C@H]2C[C@H](O)[C@@H](CO)O2)c(=O)n1 [Decitabine] (partner 2 µM)
How it was run: (§1)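 Relative viability is defined as nuclei in treated wells over nuclei in vehicle wells. Duplicate plates were run and medians reported. Lung cancer cell lines in 1536-well plates were dosed by pin tool one day after seeding, with one drug or with a fixed anchor-drug dose plus five library-drug doses (not always all listed) in √10 steps, and nuclei were counted after 5 days.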

[2] = compound: CS(=O)(=O)c1ccc(-c2cnc(N)c(C(=O)Nc3ccccc3)n2)cc1 [VE-821] + N=C(N)NC(=N)NCCc1ccccc1 [Phenformin] (partner 250 µM)
How it was run: as §1

[3] = compound: N#CC[C@H](C1CCCC1)n1cc(-c2ncnc3[nH]ccc23)cn1 [Ruxolitinib] + CS(=O)(=O)CCNCc1ccc(-c2ccc3ncnc(Nc4ccc(OCc5cccc(F)c5)c(Cl)c4)c3c2)o1 [Lapatinib] (partner 2 µM)
How it was run: as §1

[4] = compound: CS(=O)(=O)c1ccc(C(=O)Nc2ccc(Cl)c(-c3ccccn3)c2)c(Cl)c1 [Vismodegib] + Cc1nc(NC(=O)N2CCC[C@H]2C(N)=O)sc1-c1ccnc(C(C)(C)C(F)(F)F)c1 [Alpelisib] (partner 2 µM)
How it was run: as §1

| Cell Line | relative viability ([1]; first compound 0.08 µM) | relative viability ([1]; first compound 0.253 µM) | relative viability ([1]; first compound 0.8 µM) | relative viability ([1]; first compound 2.53 µM) | relative viability ([1]; first compound 8 µM) | relative viability ([2]; first compound 0.08 µM) | relative viability ([2]; first compound 0.253 µM) | relative viability ([2]; first compound 0.8 µM) | relative viability ([2]; first compound 2.53 µM) | relative viability ([2]; first compound 8 µM) | relative viability ([3]; first compound 0.08 µM) | relative viability ([3]; first compound 0.253 µM) | relative viability ([3]; first compound 0.8 µM) | relative viability ([3]; first compound 2.53 µM) | relative viability ([3]; first compound 8 µM) | relative viability ([4]; first compound 0.08 µM) | relative viability ([4]; first compound 0.253 µM) | relative viability ([4]; first compound 0.8 µM) | relative viability ([4]; first compound 2.53 µM) | relative viability ([4]; first compound 8 µM) |
| --- | --- | --- | --- | --- | --- | --- | --- | --- | --- | --- | --- | --- | --- | --- | --- | --- | --- | --- | --- | --- |
| SK-LU-1 | 0.684 | 0.671 | 0.522 | 0.612 | 0.475 | 0.675 | 0.528 | 0.497 | 0.383 | 0.216 | 0.973 | 0.991 | 0.896 | 0.819 | 0.693 | 1.07 | 0.987 | 1.07 | 0.894 | 1.06 |
| NCI-H2347 | 0.624 | 0.595 | 0.678 | 0.693 | 0.723 | 0.476 | 0.295 | 0.347 | 0.495 | 0.358 | 0.825 | 0.964 | 0.912 | 0.836 | 0.734 | 0.966 | 0.994 | 0.91 | 1.02 | 1.1 |
| NCI-H727 | 0.865 | 0.799 | 0.952 | 0.916 | 0.751 | 0.503 | 0.552 | 0.547 | 0.537 | 0.385 | 0.904 | 1.03 | 1.09 | 0.777 | 0.821 | 0.601 | 0.563 | 0.555 | 0.529 | 0.611 |
| COR-L23 | 0.538 | 0.459 | 0.599 | 0.58 | 0.468 | 0.444 | 0.438 | 0.472 | 0.502 | 0.427 | 1 | 0.9 | 1.16 | 0.744 | 0.823 | 0.77 | 0.672 | 0.689 | 0.756 | 0.819 |
| NCI-H2126 | 0.523 | 0.576 | 0.577 | 0.588 | 0.528 | 0.565 | 0.494 | 0.51 | 0.514 | 0.409 | 0.907 | 0.776 | 0.837 | 0.874 | 0.878 | 0.681 | 0.734 | 0.782 | 0.686 | 0.706 |
| H3255 | 0.655 | 0.551 | 0.614 | 0.752 | 0.596 | 0.377 | 0.338 | 0.42 | 0.344 | 0.383 | – | 0.236 | 0.249 | 0.28 | 0.226 | 0.75 | 0.676 | 0.764 | 0.752 | 0.543 |
| NCI-H1915 | 0.284 | 0.262 | 0.312 | 0.266 | 0.318 | 0.391 | 0.359 | 0.39 | 0.385 | 0.347 | 0.973 | 1 | 0.927 | 0.999 | 0.798 | 0.996 | 1.09 | 1.07 | 1.03 | 1.12 |
| NCI-H358 | 0.22 | 0.279 | 0.278 | 0.278 | 0.273 | 0.386 | 0.311 | 0.352 | 0.373 | 0.281 | 0.421 | 0.434 | 0.445 | 0.36 | 0.35 | 0.75 | 0.916 | 0.695 | 0.868 | 1.04 |
